How the values were obtained:
Type in all cases: in vivo
[1] = system: larvae of the banded cucumber beetle (Diabrotica balteata); test: Diabrotica balteata spray test; settings: 168 h, 100 g/ha (=32 μg/well), wheat seeds, after 7 days, read-out: efficacy (seedling growth)
Description: Diabrotica Balteata—Spray Test
• Solvent: 78.0 Parts by Weight of Acetone • 1.5 parts by weight of dimethylformamide • Emulsifier: Alkylarylpolyglycol Ether
(§1) To produce a suitable preparation of active compound, 1 part by weight of active compound is mixed with the stated amount of solvent, and the concentrate is diluted with water, containing an emulsifier concentration of 1000 ppm, to the desired concentration. Further test concentrations are prepared by dilution with emulsifier containing water.
Soaked wheat seeds (Triticum aestivum) are placed in a multiple well plate filled with agar and some water and are incubated for 1 day to germinate (5 seeds per well). The germinated wheat seeds are sprayed with a test solution containing the desired concentration of the active ingredient. Afterwards each unit is infected with 10-20 larvae of the banded cucumber beetle (Diabrotica balteata).
After 7 days efficacy in % is determined. 100% means all the seedlings have grown up like in the untreated, uninfected control; 0% means none of the seedlings have grown.

[2] = system: fall armyworm larvae (Spodoptera frugiperda); test: Spodoptera frugiperda spray test; settings: 168 h, maize leaf sections, after 7 days
Description: Spodoptera frugiperda—Spray Test • Solvent: 78.0 parts by weight acetone • 1.5 parts by weight dimethylformamide • Emulsifier: alkylarylpolyglycol ether
To produce a suitable preparation of active compound, 1 part by weight of active compound is mixed with the stated amount of solvents and is diluted with water, containing an emulsifier concentration of 1000 ppm, to the desired concentration. Further test concentrations are prepared by dilution with emulsifier containing water.
Maize (Zea mays) leaf sections are sprayed with a preparation of the active ingredient of the desired concentration. Once dry, the leaf sections are infested with fall armyworm larvae (Spodoptera frugiperda).
After 7 days mortality in % is determined. 100% means all caterpillars have been killed and 0% means none of the caterpillars have been killed.

[3] = system: larvae of the southern green stink bug (Nezara viridula); test: Nezara viridula spray test; settings: 96 h, barley plants, after 4 days
Description: Nezara viridula—Spray Test • Solvent: 78.0 parts by weight of acetone • 1.5 parts by weight of dimethylformamide • Emulsifier: alkylarylpolyglycol ether
as §1
Barley plants (Hordeum vulgare) are sprayed with a test solution containing the desired concentration of the active ingredient and are infested with larvae of the southern green stink bug (Nezara viridula).
After 4 days mortality in % is determined. 100% means all the stink bugs have been killed; 0% means none of the stink bugs have been killed.

[4] = system: cattle tick larvae (Rhipicephalus microplus); test: Rhipicephalus (Boophilus) microplus in-vitro contact test, larval cattle tick (strain Parkhurst, resistant against synthetic pyrethroids); settings: 1 μg/cm^2 (=100 g/ha), after 48 hours, read-out: efficacy (larvae dead or moribund)
Description: Rhipicephalus (Boophilus) Microplus—In-Vitro Contact Tests Larval Cattle Tick (Strain Parkhurst, Resistant Against Synthetic Pyrethroids)
9 mg compound is solved in 1 mL acetone and diluted with acetone to the desired concentration. 250 μL of the test solution is filled in 25 mL glass test tubes and homogeneously distributed on the inner walls by rotation and tilting on a shaking device (2 h at 30 rpm). With a compound concentration of 900 ppm, an inner surface of 44.7 cm^2 and a homogeneous distribution, a dose of 5 μg/cm^2 is achieved.
After the solvent has evaporated, each test tube is filled with 20-50 cattle tick larvae (Rhipicephalus microplus), closed with a perforated lid and incubated in a horizontal position at 85% relative humidity and 27° C. in an incubator. After 48 hours efficacy is determined. The larvae are patted on the ground of the tubes and negative geotactic behavior is recorded.
An efficacy of 100% means all larvae are dead or moribund; 0% means no larvae are dead or moribund.

[5] = system: adult mosquitoes Aedes aegypti strain MONHEIM; test: Aedes aegypti test (AEDSAE surface treatment & contact assay); settings: 24 hours after contact, read-out: efficacy (mortality); for mortality at 20 mg/m2: surface concentration 20 mg/m^2, 30 minutes exposure
Description: Aedes aegypti Test (AEDSAE Surface Treatment & Contact Assay) • Solvent: Aceton+2000 ppm rapeseed oil methyl ester (RME)
In order to produce a sufficient, active ingredient containing solution it is necessary to solve the test compound in the solvent-mix (acetone at 2 mg/ml/RME 2000 ppm). This solution is pipetted onto a glazed tile and after evaporation of the acetone, adult mosquitoes of the species Aedes aegypti strain MONHEIM are placed onto the dried surface. The exposure time is 30 minutes. Mortality in percent (%) is determined 24 hours after contact of the insects to the treated surface. 100% mortality means that all tested insects are dead, whereas 0% means that no insect died.

[6] = system: adult flies Musca domestica strain WHO-N; test: Musca domestica test (MUSCDO surface treatment & contact assay); settings: 24 hours after contact, read-out: efficacy (mortality); for mortality at 4 mg/m2: surface concentration 4 mg/m^2, 30 minutes exposure; for mortality at 20 mg/m2: surface concentration 20 mg/m^2, 30 minutes exposure
Description: Musca domestica Test (MUSCDO Surface Treatment & Contact Assay) • Solvent: Aceton+2000 ppm rapeseed oil methyl ester (RME)
In order to produce a sufficient, active ingredient containing solution it is necessary to solve the test compound in the solvent-mix (acetone at 2 mg/ml/RME 2000 ppm). This solution is pipetted onto a glazed tile and after evaporation of the acetone, adult flies of the species Musca domestica strain WHO-N are placed onto the dried surface. The exposure time is 30 minutes. Mortality in percent (%) is determined 24 hours after contact of the insects to the treated surface. 100% mortality means that all tested insects are dead, whereas 0% means that no insect died.

[7] = system: cotton aphid (Aphis gossypii); test: Aphis gossypii oral test; settings: 120 h, after 5 days
Description: Aphis gossypii—Oral Test • Solvent: 100 Parts by Weight Acetone
(§2) To produce a suitable preparation of active compound, 1 part by weight of active compound is mixed with the stated amount of solvent, and the concentrate is diluted with water to the desired concentration.
50 μL compound solution is filled in microtiter plates and 150 μL IPL41 insect medium (33%+15% sugar) is added to obtain a total volume of 200 μL per well. Afterwards the plates are sealed with parafilm through which a mixed population of the cotton aphid (Aphis gossypii) can suck on the compound preparation.
(§3) After 5 days mortality in % is determined. 100% means all aphids have been killed and 0% means none of the aphids have been killed.

[8] = system: green peach aphid (Myzus persicae); test: Myzus persicae oral test; settings: 120 h, after 5 days
Description: Myzus persicae—Oral Test • Solvent: 100 parts by weight acetone
as §2
50 μL compound solution is filled in microtiter plates and 150 μL IPL41 insect medium (33%+15% sugar) is added to obtain a total volume of 200 μL per well. Afterwards the plates are sealed with parafilm through which a mixed population of the green peach aphid (Myzus persicae) can suck on the compound preparation.
as §3

[9] = system: adult mosquitoes Culex quinquefasciatus strain P00; test: Culex quinquefasciatus test (CULXFA surface treatment & contact assay); settings: surface concentration 4 mg/m^2, 30 minutes exposure, 24 hours after contact, read-out: efficacy (mortality)
Description: Culex quinquefasciatus Test (CULXFA Surface Treatment & Contact Assay) • Solvent: Aceton+2000 ppm rapeseed oil methyl ester (RME)
In order to produce a sufficient, active ingredient containing solution it is necessary to solve the test compound in the solvent-mix (acetone at 2 mg/ml/RME 2,000 ppm). This solution is pipetted onto a glazed tile and after evaporation of the acetone, adult mosquitoes of the species Culex quinquefasciatus strain P00 are placed onto the dried surface. The exposure time is 30 minutes. Mortality in percent (%) is determined 24 hours after contact of the insects to the treated surface. 100% mortality means that all tested insects are dead, whereas 0% means that no insect died.

Row | Structure (SMILES) | pest or weed control at 32 µg/disc, 100 g/ha [1] | mortality at 100 g/ha [2] | mortality at 500 g/ha [3] | also measured
1 | CC(NC(=O)c1cc(OC(F)(F)F)cc(S(=O)(=O)C(F)F)c1)c1nc2cccnc2n1-c1ccc(C#N)cn1 (stereo not shown) [Example I-36] | 100% | 100% |  | 
2 | CC(NC(=O)c1cc(OC(F)(F)F)cc(S(C)(=O)=O)c1)c1nc2cccnc2n1-c1ccc(C(=O)N(C)C)cn1 (stereo not shown) [Example I-29] |  |  | 90% | 
3 | Cc1ccc2nc(C(C)NC(=O)c3cc(Cl)cc(OC(F)(F)F)c3)n(-c3ccc(C#N)cn3)c2n1 (stereo not shown) [Example I-20] |  | 100% |  | 
4 | CC(NC(=O)c1cc(OC(F)(F)F)cc(C2(C#N)CC2)c1)c1nc2cccnc2n1-c1ccc(Cl)cn1 (stereo not shown) [Example I-11] | 100% | 100% |  | pest or weed control at 1 µg/cm2, 100 g/ha [4]: 90%; mortality at 20 mg/m2 [5]: 80 to 100%; mortality at 4 mg/m2 [6]: 80 to 100%; mortality at 20 mg/m2 [6]: 80 to 100%
5 | C[C@H](NC(=O)c1cc(C(F)(F)F)cc(C(F)(F)F)c1)c1nc2ncccc2n1-c1ccc(C#N)cn1 [Example I-32] |  | 100% |  | 
6 | C[C@H](NC(=O)c1cc(Cl)cc(S(C)(=O)=O)c1)c1nc2cccnc2n1-c1ccc(C#N)cn1 [Example I-5] |  | 100% | 100% | mortality at 100 ppm [7]: 100%; mortality at 20 ppm [8]: 100%
7 | C[C@H](NC(=O)c1cc(OC(F)(F)F)cc(OC(F)(F)F)c1)c1nc2cccnc2n1-c1ccc(C#N)cn1 [Example I-16] | 100% | 100% |  | pest or weed control at 1 µg/cm2, 100 g/ha [4]: 100%; mortality at 4 mg/m2 ([5]; surface concentration 4 mg/m^2, 30 minutes exposure): 80 to 100%; mortality at 20 mg/m2 [5]: 80 to 100%; mortality at 4 mg/m2 [6]: 80 to 100%; mortality at 20 mg/m2 [6]: 80 to 100%
8 | CC(NC(=O)c1cc(Cl)cc(OC(F)(F)F)c1)c1nc2cc(F)cnc2n1-c1ccc(C#N)cn1 (stereo not shown) [Example I-34] | 100% | 100% |  | 
9 | CC(NC(=O)c1cc(C#N)cc(OC(F)(F)F)c1)c1nc2cccnc2n1-c1ccc(C#N)cn1 (stereo not shown) [Example I-42] |  | 100% |  | 
10 | CC(NC(=O)c1cc(OC(F)(F)F)cc(C(C)(C)C#N)c1)c1nc2cccnc2n1-c1ccc(Cl)cn1 (stereo not shown) [Example I-14] |  | 83% |  | pest or weed control at 1 µg/cm2, 100 g/ha [4]: 100%; mortality at 20 mg/m2 [5]: 80 to 100%; mortality at 20 mg/m2 [6]: 80 to 100%
11 | CNC(=O)c1ccc(-n2c(C(C)NC(=O)c3cc(OC(F)(F)F)cc(S(C)(=O)=O)c3)nc3cccnc32)nc1 (stereo not shown) [Example I-28] |  |  | 100% | 
12 | CC(NC(=O)c1cc(OC(F)(F)F)cc(C2CC2)c1)c1nc2ncccc2n1-c1ccc(Cl)cn1 (stereo not shown) [Example I-33, N-[1-[I-(5-chloro-2-pyridyl)imidazo[4,5-b]pyridin-2-yl]ethyl]-3-cyclopropyl-5-(trifluoromethoxy) benzamide] |  | 100% |  | mortality at 4 mg/m2 [9]: 80 to 100%
13 | CC(NC(=O)c1cc(C(F)F)cc(C(F)F)c1)c1nc2cccnc2n1-c1ccc(C#N)cn1 (stereo not shown) [Example I-44] |  | 83% |  | 
14 | Cc1ccc2nc(C(C)NC(=O)c3cc(OC(F)(F)F)cc(S(C)(=O)=O)c3)n(-c3ccc(C#N)cn3)c2n1 (stereo not shown) [Example I-23] |  | 100% |  | 
15 | CC(NC(=O)c1cc(Br)cc(OC(F)(F)F)c1)c1nc2cccnc2n1-c1ccc(C#N)cn1 (stereo not shown) [Example I-41] | 100% | 100% |  | 
16 | CC(NC(=O)c1cc(C(F)(F)F)cc(C(F)(F)F)c1)c1nc2cccnc2n1-c1ccc(C(N)=O)cn1 (stereo not shown) [Example I-30] |  |  | 100% | 
17 | C[C@H](NC(=O)c1cc(C#N)cc(C(C)(C)C#N)c1)c1nc2cccnc2n1-c1ccc(C#N)cn1 [Example I-7] |  | 100% |  | pest or weed control at 1 µg/cm2, 100 g/ha [4]: 90%; mortality at 100 ppm [7]: 100%; mortality at 20 ppm [8]: 100%; mortality at 20 mg/m2 [5]: 80 to 100%
18 | CC(NC(=O)c1cc(OC(F)(F)F)cc(C(C)(F)F)c1)c1nc2cccnc2n1-c1ccc(C#N)cn1 (stereo not shown) [Example I-37] | 100% | 100% |  | 
19 | CC(NC(=O)c1cc(C(F)(F)F)cc(C(F)(F)F)c1)c1nc2cnccc2n1-c1ccc(Cl)cn1 (stereo not shown) [Example I-39, N-[1-[1-(5-chloro-2-pyridyl)imidazo[4,5-c]pyridin-2-yl]ethyl]-3,5-bis(trifluoromethyl)benzamide] | 100% |  | 100% | 
20 | CC(NC(=O)c1cc(OC(F)(F)F)cc(S(C)(=O)=O)c1)c1nc2cccnc2n1-c1ccc(Cl)cn1 (stereo not shown) [Example I-12] | 100% | 100% | 100% | 
